Data published in patent publication US20130217664A1, “NOVEL COMPOUNDS USEFUL FOR THE TREATMENT OF DEGENERATIVE AND INFLAMMATORY DISEASES” (priority 2012, published 2013).

How the values were obtained:
human JAK1 = molecular target: T1, human JAK1 (Homo sapiens, UniProt P23458); assay: JAK1 inhibition assay (polyGT substrate / Ulight-JAK1 peptide); format: biochemical; details: recombinant human JAK1 catalytic domain; polyGT or Ulight-JAK1 peptide assay
T1 construct: catalytic domain, amino acids 866-1154; catalog number PV4774; purchased Invitrogen PV4774
T1 sequence (P23458 866-1154): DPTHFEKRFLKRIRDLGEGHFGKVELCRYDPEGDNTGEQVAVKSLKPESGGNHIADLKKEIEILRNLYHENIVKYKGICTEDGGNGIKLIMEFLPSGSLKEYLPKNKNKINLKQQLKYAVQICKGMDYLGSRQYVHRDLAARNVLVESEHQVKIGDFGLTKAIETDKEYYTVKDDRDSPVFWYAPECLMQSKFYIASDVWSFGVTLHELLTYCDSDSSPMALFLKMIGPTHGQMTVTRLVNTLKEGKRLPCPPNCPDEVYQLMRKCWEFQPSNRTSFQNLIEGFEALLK
Procedure: 1.1 JAK1 Inhibition Assay
1.1.1 JAK1 Assay polyGT Substrate
After 45 min at 30° C., reactions are stopped by adding of 25 μL/well of 150 mM phosphoric acid. […] Plates are washed 6 times with 300 μL per well of a 75 mM phosphoric acid solution and the bottom of the plates is sealed. 40 μL/well of Microscint-20 is added, the top of the plates is sealed and readout is performed using the Topcount (Perkin Elmer). Kinase activity is calculated by subtracting counts per min (cpm) obtained in the presence of a positive control inhibitor (10 μM staurosporine) from cpm obtained in the presence of vehicle. The ability of a test compound to inhibit this activity is determined as:
(§1) Percentage inhibition=((cpm determined for sample with test compound present−cpm determined for sample with positive control inhibitor)divided by(cpm determined in the presence of vehicle−cpm determined for sample with positive control inhibitor))*100.
Dose dilution series are prepared for the compounds enabling the testing of dose-response effects in the JAK1 assay and the calculation of the IC50 for each compound.
1.1.2 JAK1 Ulight-JAK1 Peptide Assay
(§2) After 60 min at room temperature, reactions were stopped by adding 20 μL/well of detection mixture (1× detection buffer (Perkin Elmer, catalog number CR97-100C), 0.5 nM Europium-anti-phosphotyrosine (PT66) (Perkin Elmer, catalog number AD0068), 10 mM EDTA). […] Kinase activity was calculated by subtracting relative fluorescence units (RFU) obtained in the presence of a positive control inhibitor (10 μM staurosporine) from RFU obtained in the presence of vehicle. The ability of a test compound to inhibit this activity was determined as:
(§3) Percentage inhibition=((RFU determined for sample with test compound present−RFU determined for sample with positive control inhibitor)divided by(RFU determined in the presence of vehicle−RFU determined for sample with positive control inhibitor))*100.
(§4) Dose dilution series were prepared for the compounds enabling the testing of dose-response effects in the JAK1 assay and the calculation of the IC50 for the compound. Each compound is routinely tested at concentration of 20 μM followed by a 1/5 serial dilution, 10 points in a final concentration of 1% DMSO. […] The data are expressed as the average IC50 from the assays±standard error of the mean.

human JAK2 = molecular target: T2, human JAK2 (Homo sapiens, UniProt O60674); assay: JAK2 inhibition assay (polyGT substrate / Ulight-JAK1 peptide); format: biochemical; details: recombinant human JAK2 catalytic domain; polyGT or Ulight-JAK1 peptide assay
T2 construct: catalytic domain (amino acids 808-1132; catalog number PV4210); GST; purchased Invitrogen PV4210
T2 sequence (O60674 808-1132): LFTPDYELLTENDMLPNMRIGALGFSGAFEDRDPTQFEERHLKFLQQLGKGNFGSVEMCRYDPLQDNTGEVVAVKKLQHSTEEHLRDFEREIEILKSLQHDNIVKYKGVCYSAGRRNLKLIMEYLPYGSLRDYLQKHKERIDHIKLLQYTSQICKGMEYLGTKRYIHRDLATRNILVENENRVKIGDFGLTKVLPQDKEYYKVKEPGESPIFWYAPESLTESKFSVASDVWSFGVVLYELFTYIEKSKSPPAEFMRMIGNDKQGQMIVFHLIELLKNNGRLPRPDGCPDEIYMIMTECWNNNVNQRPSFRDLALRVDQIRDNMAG
Procedure: 1.2 JAK2 Inhibition Assay
1.2.1 JAK2 Assay polyGT Substrate
0.025 mU of JAK2 is incubated with 2.5 μg polyGT substrate (Sigma catalog number P0275) in kinase reaction buffer (5 mM MOPS pH 7.5, 9 mM MgAc, 0.3 mM EDTA, 0.06% Brij and 0.6 mM DTT, 1 μM non-radioactive ATP, 0.25 μCi ^33P-gamma-ATP (GE Healthcare, catalog number AH9968) final concentrations) with or without 5 μL containing test compound or vehicle (DMSO, 1% final concentration), in a total volume of 25 μL, in a polypropylene 96-well plate (Greiner, V-bottom). After 90 min at 30° C., reactions are stopped by adding of 25 μL/well of 150 mM phosphoric acid. […] Plates are washed 6 times with 300 μL per well of a 75 mM phosphoric acid solution and the bottom of the plates is sealed. 40 μL/well of Microscint-20 is added, the top of the plates is sealed and readout is performed using the Topcount (Perkin Elmer). Kinase activity is calculated by subtracting counts per min (cpm) obtained in the presence of a positive control inhibitor (10 μM staurosporine) from cpm obtained in the presence of vehicle. The ability of a test compound to inhibit this activity is determined as:
as §1
Dose dilution series are prepared for the compounds enabling the testing of dose-response effects in the JAK2 assay and the calculation of the IC50 for each compound.
1.2.2 JAK2 Ulight-JAK1 Peptide Assay
as §2, §3
as §4, with “are” for “were”, “compound” for “the compounds”, “JAK2” for “JAK1”

Row | IC50 (human JAK1) [nM] | IC50 (human JAK2) [nM] | Compound
1 | 501 to 1000 | > 1000 | CCN(c1ccc2oc(C)nc2c1)c1cc2c(cn1)ncn2C [Compound 6, N-ethyl-2-methyl-N-(1-methyl-1H-imidazo[4,5-c]pyridin-6-yl)benzo[d]oxazol-5-amine]
2 | 501 to 1000 | > 1000 | CCN(c1ccc(CO)cc1)c1cc2c(cn1)ncn2C [Compound 13, (4-(ethyl(1-methyl-1H-imidazo[4,5-c]pyridin-6-yl)amino)phenyl)MeOH]
3 | > 1000 | > 1000 | CN(c1ccc(OCc2ccccc2)cc1)c1cc2c(cn1)ncn2C [Compound 14, N-(4-(benzyloxy)phenyl)-N,1-dimethyl-1H-imidazo[4,5-c]pyridin-6-amine]
4 | 101 to 500 | > 1000 | Cc1ccccc1N(C)c1cc2c(cn1)ncn2C [Compound 15, N,1-dimethyl-N-o-tolyl 1H-imidazo[4,5-c]pyridin-6-amine]
5 | 501 to 1000 | > 1000 | CN(c1ccc(OCC2CCCO2)cc1)c1cc2c(cn1)ncn2C (stereo not shown) [Compound 18, N,1-dimethyl-N-(4-((tetrahydrofuran-2-yl)methoxy)phenyl)-1H-imidazo[4,5-c]pyridin-6-amine]
6 | 101 to 500 | > 1000 | CN(c1ccc(OCCO)cc1)c1cc2c(cn1)ncn2C [Compound 19, 2-(4-(methyl(1-methyl-1H-imidazo[4,5-c]pyridin-6-yl)amino)phenoxy)ethanol]
7 | > 1000 | > 1000 | Cc1noc(C)c1COc1ccc(N(C)c2cc3c(cn2)ncn3C)cc1 [Compound 20, N-(4-((3,5-dimethylisoxazol-4-yl)methoxy)phenyl)-N,1-dimethyl-1H-imidazo[4,5-c]pyridin-6-amine]
8 | 501 to 1000 | > 1000 | CC(C)CCOc1ccc(N(C)c2cc3c(cn2)ncn3C)cc1 [Compound 21, N-(4-(isopentyloxy)phenyl)-N,1-dimethyl-1H-imidazo[4,5-c]pyridin-6-amine]
9 | 101 to 500 | 501 to 1000 | CCCOc1ccc(N(C)c2cc3c(cn2)ncn3C)cc1 [Compound 22, N,1-dimethyl-N-(4-propoxyphenyl)-1H-imidazo[4,5-c]pyridin-6-amine]
10 | 501 to 1000 | > 1000 | CCOCCOc1ccc(N(C)c2cc3c(cn2)ncn3C)cc1 [Compound 23, N-(4-(2-ethoxyethoxy)phenyl)-N,1-dimethyl-1H-imidazo[4,5-c]pyridin-6-amine]
11 | 101 to 500 | > 1000 | CN(c1ccc(OCC2CC2)cc1)c1cc2c(cn1)ncn2C [Compound 24, N-(4-(cyclopropylmethoxy)phen-yl)-N,1-dimethyl-1H-imidazo[4,5-c]pyridin-6-amine]
12 | 501 to 1000 | > 1000 | COc1ccc(COc2cccc(N(C)c3cc4c(cn3)ncn4C)c2C)cc1 [Compound 44, N-(3-(4-methoxybenzyloxy)-2-methylphenyl)-N,1-dimethyl-1H-imidazo[4,5-c]pyridin-6-amine]
13 | 101 to 500 | > 1000 | COc1ccc(N(C)c2cc3c(cn2)ncn3C)c(C)c1 [Compound 45, N-(4-Methoxy-2-methylphenyl)-N,1-dimethyl-1H-imidazo[4,5-c]pyridin-6-amine]
14 | > 1000 | > 1000 | Cc1cc(OCC(=O)N(C)C)ccc1N(C)c1cc2c(cn1)ncn2C [Compound 51, N,N-dimethyl-2-(3-methyl-4-(methyl(1-methyl-1H-imidazo[4,5-c]pyridin-6-yl)amino)phenoxy)acetamide]

More lines, now with the values behind:

Row | Compound | IC50 (human JAK1) [nM] | IC50 (human JAK2) [nM]
15 | CCN(c1ccc2ocnc2c1)c1cc2c(cn1)ncn2C [Compound 3, N-ethyl-N-(1-methyl-1H-imidazo[4,5-c]pyridin-6-yl)benzo[d]oxazol-5-amine] | > 1000 | > 1000
16 | CCN(c1ccc2c(ccn2C)c1)c1cc2c(cn1)ncn2C [Compound 8, N-ethyl-1-methyl-N-(1-methyl-1H-indol-5-yl)-1H-imidazo[4,5-c]pyridin-6-amine] | > 1000 | 101 to 500
17 | CCN(c1cccc(C(=O)c2ccccc2)c1)c1cc2c(cn1)ncn2C [Compound 9, (3-(ethyl(1-methyl-1H-imidazo[4,5-c]pyridin-6-yl)amino)phenyl)(phenyl) methanone] | > 1000 | > 1000
18 | CCN(c1ccc2sc(C)nc2c1)c1cc2c(cn1)ncn2C [Compound 10, N-ethyl-2-methyl-N-(1-methyl-1H-imidazo[4,5-c]pyridin-6-yl)benzo[d]thiazol-5-amine] | > 1000 | > 1000
19 | CCN(c1cccc(Oc2ccccc2)c1)c1cc2c(cn1)ncn2C [Compound 11, N-ethyl-1-methyl-N-(3-phenoxyphenyl)-1H-imidazo[4,5-c]pyridin-6-amine] | 101 to 500 | > 1000
20 | CCN(c1cccc(C(O)c2ccccc2)c1)c1cc2c(cn1)ncn2C (stereo not shown) [Compound 12, (3-(ethyl(1-methyl-1H-imidazo[4,5-c]pyridin-6-yl)amino)phenyl)(phenyl) MeOH] | 501 to 1000 | > 1000
21 | CN(c1cc2c(cn1)ncn2C)c1ccccc1C(F)(F)F [Compound 36, N,1-dimethyl-N-(2-(trifluoromethyl)phenyl)-1H-imidazo[4,5-c]pyridin-6-amine] | > 1000 | > 1000
22 | CCc1ccccc1N(c1cc2c(cn1)ncn2C)C1CC1 [Compound 37, N-Cyclopropyl-N-(2-ethylphenyl)-1-methyl-1H-imidazo[4,5-c]pyridin-6-amine] | 101 to 500 | > 1000
23 | Cc1cc(C(=O)O)ccc1N(C)c1cc2c(cn1)ncn2C [Compound 40, 3-methyl-4-(methyl(1-methyl-1H-imidazo[4,5-c]pyridin-6-yl)amino)benzoic acid] | > 1000 | > 1000
24 | CN(c1cc2c(cn1)ncn2C)c1ccccc1C#N [Compound 41, 2-(Methyl(1-methyl-1H-imidazo[4,5-c]pyridin-6-yl)amino)benzonitrile] | > 1000 | > 1000
25 | COc1ccccc1N(C)c1cc2c(cn1)ncn2C [Compound 42, N-(2-methoxyphenyl)-N,1-dimethyl-1H-imidazo[4,5-c]pyridin-6-amine] | 101 to 500 | > 1000
26 | Cc1c(O)cccc1N(C)c1cc2c(cn1)ncn2C [Compound 46, 2-methyl-3-(methyl(1-methyl-1H-imidazo[4,5-c]pyridin-6-yl)amino)phenol] | > 1000 | > 1000
27 | CN(c1cc2c(cn1)ncn2C)c1ccccc1OC(F)(F)F [Compound 49, N,1-dimethyl-N-(2-(trifluoromethoxy)phenyl)-1H-imidazo[4,5-c]pyridin-6-amine] | 501 to 1000 | > 1000
28 | COCCNC(=O)c1ccc(N(C)c2cc3c(cn2)ncn3C)c(C)c1 [Compound 50, N-(2-methoxyethyl)-3-methyl-4-(methyl(1-methyl-1H-imidazo[4,5-c]pyridin-6-yl)amino)benzamide] | > 1000 | > 1000
29 | Cc1cc(OCCN2CCCC2)ccc1N(C)c1cc2c(cn1)ncn2C [Compound 52, N,1-dimethyl-N-(2-methyl-4-(2-(pyrrolidin-1-yl)ethoxy)phenyl)-1H-imidazo[4,5-c]pyridin-6-amine] | 501 to 1000 | > 1000
